Data from patent US20070219144A1, “IMMUNOMODULATORY SACCHARIDE COMPOUNDS” (University of Alberta, priority 2006, published 2007).
Entries after “also recorded” stand apart in the source; their conditions may differ.

Tests used:
Assay type in all cases: cell-based, human
[1] = system: IL-12p70; experiment: Inhibition of IFN-γ/SAC-induced IL-12p70 production in THP-1 cells after pre-incubation (ELISA); settings: for inhibition of IL-12p70 production induced by IFN-γ/SAC: 5 μM, FIG. 13; for inhibition of IL-12p70 response induced by IFN-γ/SAC: 10 or 100 μg/mL, FIG. 11B; for inhibition of the cytokine response (IL-12p70) induced by IFN-γ/SAC: general statement, no concentration given
[2] = system: TNF-α; experiment: Inhibition of IFN-γ/SAC-induced TNF-α production in THP-1 cells after pre-incubation (ELISA); settings: for induction of TNF-α production in the IFN-γ/SAC assay / inhibition of TNF-α production induced by IFN-γ/SAC: 5 μM, FIG. 12; for inhibition of TNF-α response induced by IFN-γ/SAC: FIG. 11A; for inhibition of the cytokine response (TNF-α) induced by IFN-γ/SAC: general statement, no concentration given
[3] = system: IL-12p70; experiment: IL-12p70 induction in THP-1 cells by compound alone (ELISA); settings: 10 or 100 μg/mL
Experimental: (§1) Experiments were conducted to determine the role for the MTX residue. Given its location in the capping motif in LAM from M. tuberculosis, it was hypothesized that the residue may function as an immunomodulatory species. Thus, the ability of 3 and 34 to induce or inhibit the production of the TNF-α and IL-12p70 was evaluated using a human monocytic cell line (THP-1). THP-1 cells were re-suspended at a concentration of 5×10^6 cells/mL in RPMI 1640+10% FCS+1% GPS (200 mM penicillin/streptomycin (Sigma UK)+2 mM L-glutamine (Invitrogen)) and plated into a 48-well plate (500 μL/well). Cells were treated with either 3 or 34 (100 μg and 10 μg/mL) or AraLAM or ManLAM (10 μg/mL) for 24 hours and then stimulated for a further 8 hours with a combination of Staphylococcus aureus Cowan (SAC) (Pansorbin™, Calbiochem, UK) and human IFNγ (1000 U/mL, Preprotech). Following incubation, the supernatants were collected and stored in 200 μL aliquots (−80° C.) and analyzed by ELISA (R&D systems) for IL12p70 and TNF-α production.

[4] = system: TNF-α; experiment: TNF-α induction in THP-1 cells by compound alone (ELISA); settings: 10 or 100 μg/mL
Experimental: as §1

Row | SMILES | inhibition of IL-12p70 production induced by IFN-γ/SAC [1] | induction of TNF-α production in the IFN-γ/SAC assay [2] | inhibition of TNF-α production induced by IFN-γ/SAC [2] | induction of IL-12p70 production [3] | inhibition of IL-12p70 response induced by IFN-γ/SAC [1] | inhibition of the cytokine response (IL-12p70) induced by IFN-γ/SAC [1] | inhibition of TNF-α response induced by IFN-γ/SAC ([2]; 10 μg/mL) | inhibition of the cytokine response (TNF-α) induced by IFN-γ/SAC [2] | induction of TNF-α production [4] | inhibition of TNF-α response induced by IFN-γ/SAC ([2]; 100 μg/mL)
1 | CO[C@H]1O[C@H](CO)[C@@H](O)[C@H](O[C@H]2O[C@H](CSC)[C@H](O)[C@H]2O)[C@@H]1O [Compound 2, Methyl 3-O-(5-deoxy-5-methylthio-α-D-xylofuranosyl)-α-D-mannopyranoside] | inhibited induction, but to a degree intermediate between 3 and 34 | appeared to induce production of TNF-α to varying degrees | none of these compounds inhibited cytokine induction |  |  |  |  |  |  | 
2 | CO[C@H]1O[C@H](CO)[C@@H](O)[C@H](O)[C@@H]1O[C@H]1O[C@H](CSC)[C@H](O)[C@H]1O [Compound 1, Methyl 2-O-(5-deoxy-5-methylthio-α-D-xylofuranosyl)-α-D-mannopyranoside] | inhibited induction, but to a degree intermediate between 3 and 34 | appeared to induce production of TNF-α to varying degrees | none of these compounds inhibited cytokine induction |  |  |  |  |  |  | 
3 | CO[C@H]1OC(CO)[C@@H](O[C@H]2O[C@H](C[S+](C)[O-])C(O)[C@@H]2O)[C@H](O)C1O (mixture of isomers) [Compound 34] | less active |  | weaker inhibitor than 3 | Neither 3 nor 34, when tested at concentrations of 10 or 100 μg/mL, significantly induced the production of these two cytokines; also recorded: did not lead to production | only a very modest effect | modest levels of inhibition; also recorded: modest inhibitory properties | less effective and comparable to AraLAM at 10 μg/mL | modest levels of inhibition; also recorded: modest inhibitory properties | Neither 3 nor 34, when tested at concentrations of 10 or 100 μg/mL, significantly induced the production of these two cytokines; also recorded: did not lead to production | 
4 | CO[C@H]1O[C@H](CO)[C@H](O)[C@H]1O [Compound 35, methyl α-D-xylofuranoside, reference compound] | inhibited induction, but to a degree intermediate between 3 and 34 | appeared to induce production of TNF-α to varying degrees | none of these compounds inhibited cytokine induction |  |  |  |  |  |  | 
5 | CO[C@H]1O[C@H](CO)[C@@H](O[C@@H]2O[C@@H](CSC)[C@@H](O)[C@@H]2O)[C@H](O)[C@@H]1O [Compound 6, Methyl 4-O-(5-deoxy-5-methylthio-α-L-xylofuranosyl)-α-D-mannopyranoside] | inhibited induction, but to a degree intermediate between 3 and 34 | appeared to induce production of TNF-α to varying degrees | none of these compounds inhibited cytokine induction |  |  |  |  |  |  | 
6 | CO[C@H]1O[C@H](CO)[C@@H](O[C@H]2O[C@H](CSC)[C@H](O)[C@H]2O)[C@H](O)[C@@H]1O [Compound 3, Methyl 4-O-(5-deoxy-5-methylthio-α-D-xylofuranosyl)-α-D-mannopyranoside] |  |  | inhibited TNF-α production to a similar degree as a 5 μM concentration of ManLAM | Neither 3 nor 34, when tested at concentrations of 10 or 100 μg/mL, significantly induced the production of these two cytokines; also recorded: did not lead to production | only a very modest effect | modest levels of inhibition; also recorded: modest inhibitory properties |  | modest levels of inhibition; also recorded: modest inhibitory properties | Neither 3 nor 34, when tested at concentrations of 10 or 100 μg/mL, significantly induced the production of these two cytokines; also recorded: did not lead to production | level of inhibition comparable with ManLAM at 10 μg/mL
